Measurements as given in patent publication US9062041B2 (Bayer Intellectual Property GmbH, priority 2011, dated 2015).

How the values were obtained:
Type in all cases: cell-based
[1] = target: EP2 subtype of the human PGE2 receptor (Homo sapiens, UniProt P43116); test: cAMP antagonism test on the human EP2 receptor (HTRF cAMP detection); conditions: hEP2 receptor, read-out: Antagonism hEP2 IC50
Procedure, shortened: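 Cells expressing human EP2 preincubated 20 min at RT with compound (0.8 nM–16.5 μM), then stimulated 60 min with PGE2 (3× solution 1.5 nM) in PBS-IBMX. After 20 min lysis, cAMP measured by competitive HTRF with cAMP-d2 and Eu cryptate anti-cAMP antibody (665/620 nm ratio).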

[2] = target: T1, human PGD receptor (Homo sapiens, UniProt Q13258); test: cAMP antagonism test on the human prostaglandin D receptor (HTRF cAMP detection); conditions: selectivity towards hDP, IC50 measured by cAMP antagonism test
T1 sequence (Q13258 1-359): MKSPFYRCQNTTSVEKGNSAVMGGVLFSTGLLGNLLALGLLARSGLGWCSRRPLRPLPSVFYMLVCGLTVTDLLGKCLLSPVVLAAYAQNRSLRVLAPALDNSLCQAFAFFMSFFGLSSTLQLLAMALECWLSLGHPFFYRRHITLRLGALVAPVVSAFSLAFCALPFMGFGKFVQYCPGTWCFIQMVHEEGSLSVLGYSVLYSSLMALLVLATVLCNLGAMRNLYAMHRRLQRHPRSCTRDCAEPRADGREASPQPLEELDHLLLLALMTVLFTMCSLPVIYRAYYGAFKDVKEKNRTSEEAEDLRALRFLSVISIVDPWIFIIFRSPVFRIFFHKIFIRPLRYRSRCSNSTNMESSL
Procedure, shortened: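 Cells pre-mixed with cAMP-d2 were preincubated with compound (0.8 nM–16.5 μM) for 20 min at RT, then stimulated with 3× PGD2 solution (6 nM, in PBS-IBMX) for 30 min at RT. After lysis (20 min), HTRF read at 665/620 nm; antagonism seen as rise in FRET ratio.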

[3] = target: EP4 subtype of the human PGE2 receptor (Homo sapiens, UniProt P35408); test: cAMP antagonism test on the human EP4 receptor (HTRF cAMP detection); conditions: selectivity towards hEP4, IC50 measured by cAMP antagonism test
Chain of EP4 subtype of the human PGE2 receptor (P35408 whole entry): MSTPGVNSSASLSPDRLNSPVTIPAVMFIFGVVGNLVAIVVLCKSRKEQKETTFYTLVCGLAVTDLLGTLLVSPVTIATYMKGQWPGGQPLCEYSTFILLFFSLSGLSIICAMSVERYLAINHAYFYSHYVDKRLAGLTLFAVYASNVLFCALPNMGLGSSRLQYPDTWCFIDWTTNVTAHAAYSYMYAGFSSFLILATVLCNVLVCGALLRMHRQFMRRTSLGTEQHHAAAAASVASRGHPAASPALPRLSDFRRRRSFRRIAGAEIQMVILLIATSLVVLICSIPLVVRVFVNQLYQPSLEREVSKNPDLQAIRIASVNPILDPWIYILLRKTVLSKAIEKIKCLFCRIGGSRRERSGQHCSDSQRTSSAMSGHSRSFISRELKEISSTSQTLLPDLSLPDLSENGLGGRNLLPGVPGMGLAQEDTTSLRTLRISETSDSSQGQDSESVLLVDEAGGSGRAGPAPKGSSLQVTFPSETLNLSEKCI
Procedure, shortened: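 Cells expressing human EP4 preincubated 20 min at RT with compound (0.8 nM–16.5 μM), then stimulated with PGE2 (0.3 nM in 3× solution, with IBMX) 60 min at RT. After lysis, cAMP measured by HTRF competition (665/620 nm ratio); antagonism seen as rise in FRET signal.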

Chain of EP2 subtype of the human PGE2 receptor (P43116 whole entry): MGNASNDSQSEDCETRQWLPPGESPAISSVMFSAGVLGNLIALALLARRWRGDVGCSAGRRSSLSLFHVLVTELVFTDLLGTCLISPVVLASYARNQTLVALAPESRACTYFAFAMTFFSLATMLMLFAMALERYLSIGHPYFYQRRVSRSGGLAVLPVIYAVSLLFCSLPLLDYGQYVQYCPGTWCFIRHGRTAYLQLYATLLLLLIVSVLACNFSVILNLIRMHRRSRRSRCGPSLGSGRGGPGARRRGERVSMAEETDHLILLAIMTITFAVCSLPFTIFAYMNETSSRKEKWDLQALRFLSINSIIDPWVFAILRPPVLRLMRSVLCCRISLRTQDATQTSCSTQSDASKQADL

Structure (SMILES) | IC50 [1] | Selectivity hEP2/hDP [2] | Selectivity hEP2/hEP4 [3]
COCCNC(=O)c1ccc2nn(CC3CCN(C(=O)c4ccc(OC(F)F)cc4F)CC3)cc2c1C [Example 40, 2-({1-[4-(difluoro-methoxy)-2-fluoro-benzoyl]piperidin-4-yl}methyl)-N-(2-methoxyethyl)-4-methyl-2H-indazol-5-carboxamide] | 11.5 nM | xxx (xxx > 100) | xxx (xxx > 100)
COCCNC(=O)c1ccc2nn(CC3CCN(C(=O)c4ccc(N5CCCC5)cc4F)CC3)cc2c1C [Example 41, 2-({1-[2-fluoro-4-(pyrrolidin-1-yl)-benzoyl]piperidin-4-yl}methyl)-N-(2-methoxyethyl)-4-methyl-2H-indazol-5-carboxamide] | 5.62 nM | xxx (xxx > 100) | xxx (xxx > 100)
COCCNC(=O)c1ccc2nn(CC3CCN(C(=O)c4ccc(Oc5ccncc5)cc4)CC3)cc2c1C [Example 51, N-(2-methoxyethyl)-4-methyl-2-({1-[4-(pyridyloxy)benzoyl]piperidin-4-yl}-methyl)-2H-indazol-5-carboxamide] | 60 nM | xxx (xxx > 100) | xxx (xxx > 100)
COCCNC(=O)c1ccc2nn(CC3CCN(C(=O)c4ccc(-n5cnnc5)cc4)CC3)cc2c1C [Example 52, N-(2-methoxyethyl)-4-methyl-2-((1-[4-(4H-1,2,4-triazol-4-yl)benzoyl]piperidin-4-yl}methyl)-2H-indazol-5-carboxamide] | 830 nM | xx (xx: 10-100) | xx (xx: 10-100)
COCCNC(=O)c1ccc2nn(CC3CCN(C(=O)c4ccc(N5CCOCC5)cc4F)CC3)cc2c1C [Example 53, 2-{[1-(2-fluoro-4-morpholinobenzoyl)-piperidin-4-yl]-methyl}-N-(2-methoxyethyl)-4-methyl-2H-indazol-5-carboxamide] | 44.2 nM | xxx (xxx > 100) | xxx (xxx > 100)
COCCNC(=O)c1ccc2nn(CC3CCN(C(=O)c4ccc(OC(F)(F)F)cc4)CC3)cc2c1C [Example 55, N-(2-methoxyethyl)-4-methyl-2-({1-[4-(trifluoromethoxy)benzoyl]piperidin-4-yl}methyl)-2H-indazol-5-carboxamide] | 9.67 nM | xxx (xxx > 100) | xxx (xxx > 100)
COCCNC(=O)c1ccc2nn(CC3CCN(C(=O)c4ccc(SC(F)(F)F)cc4)CC3)cc2c1C [Example 57, N-(2-methoxyethyl)-4-methyl-2-[(1-{4-[(trifluoromethyl)sulphanyl]benzoyl}piperidin-4-yl)methyl]-2H-indazol-5-carboxamide] | 5.29 nM | xxx (xxx > 100) | xxx (xxx > 100)
Cc1c(C(=O)NCCN2CCOCC2)ccc2nn(CC3CCN(C(=O)c4ccc(C(F)(F)F)cc4F)CC3)cc12 [Example 58, 2-({1-[2-fluoro-4-(trifluoromethyl)benzoyl]piperidin-4-yl}methyl)-4-methyl-N-(2-morpholinoethyl)-2H-indazol-5-carboxamide] | 1080 nM | xx (xx: 10-100) | xx (xx: 10-100)
Cc1c(C(=O)NCCN2CCOCC2)ccc2nn(CC3CCN(C(=O)c4ccc(OC(F)(F)F)cc4)CC3)cc12 [Example 59, 4-methyl-N-(2-morpholinoethyl)-2-({1-[4-(trifluoromethoxy)benzoyl]piperidin-4-yl}methyl)-2H-indazol-5-carboxamide] | 758 nM | xx (xx: 10-100) | xx (xx: 10-100)
Cc1c(C(=O)NCCN2CCOCC2)ccc2nn(CC3CCN(C(=O)c4ccc(S(F)(F)(F)(F)F)cc4)CC3)cc12 [Example 60, 4-methyl-N-(2-morpholinoethyl)-2-({1-[4-(pentafluoro-λ^6-sulphanyl)benzoyl]-piperidin-4-yl}methyl)-2H-indazol-5-carboxamide] | 175 nM | xx (xx: 10-100) | xx (xx: 10-100)
Cc1c(C(=O)NCCN2CCOCC2)ccc2nn(CC3CCN(C(=O)c4cccc(OC(F)(F)F)c4)CC3)cc12 [Example 61, 4-methyl-N-(2-morpholinoethyl)-2-({1-[3-(trifluoromethoxy)benzoyl]piperidin-4-yl}methyl)-2H-indazol-5-carboxamide] | 1500 nM | xx (xx: 10-100) | xx (xx: 10-100)
Cc1c(C(=O)NCCN2CCOCC2)ccc2nn(CC3CCN(C(=O)c4ccc(Cl)cc4)CC3)cc12 [Example 62, 2-{[1-(4-chlorobenzoyl)piperidin-4-yl]methyl}-4-methyl-N-(2-morpholinoethyl)-2H-indazol-5-carboxamide] | 674 nM | xx (xx: 10-100) | xx (xx: 10-100)

Other lines, results leading:

IC50 [1] | Selectivity hEP2/hDP [2] | Selectivity hEP2/hEP4 [3] | Structure (SMILES)
4.82 nM | xxx (xxx > 100) | xxx (xxx > 100) | COCCNC(=O)c1ccc2nn(CC3CCN(C(=O)c4ccc(-c5ccc(OC)cc5)cc4F)CC3)cc2c1C [Example 43, 2-({1-[(3-fluoro-4′-methoxybiphenyl-4-yl)carbonyl]piperidin-4-yl}methyl)-N-(2-methoxyethyl)-4-methyl-2H-indazol-5-carboxamide]
3.85 nM | xxx (xxx > 100) | xxx (xxx > 100) | COCCNC(=O)c1ccc2nn(CC3CCN(C(=O)c4ccc(-c5ccc(C)cc5)cc4F)CC3)cc2c1C [Example 44, 2-({1-[(3-fluoro-4′-methylbiphenyl-4-yl)carbonyl]piperidin-4-yl}methyl)-N-(2-methoxyethyl)-4-methyl-2H-indazol-5-carboxamide]
5.51 nM | xxx (xxx > 100) | xxx (xxx > 100) | COCCNC(=O)c1ccc2nn(CC3CCN(C(=O)c4ccc(-c5cccc(C(F)(F)F)c5)cc4F)CC3)cc2c1C [Example 45, 2-[(1-{[3-fluoro-3′-(trifluoromethyl)-biphenyl-4-yl]-carbonyl}-piperidin-4-yl)-methyl]-N-(2-methoxyethyl)-4-methyl-2H-indazol-5-carboxamide]
4.91 nM | xxx (xxx > 100) | xxx (xxx > 100) | COCCNC(=O)c1ccc2nn(CC3CCN(C(=O)c4ccc(-c5ccccc5OC(F)(F)F)cc4F)CC3)cc2c1C [Example 46, 2-[(1-{[3-fluoro-2′-(trifluoromethoxy)-biphenyl-4-yl]-carbonyl}piperidin-4-yl)methyl]-N-(2-methoxyethyl)-4-methyl-2H-indazol-5-carboxamide]
5.61 nM | xxx (xxx > 100) | xxx (xxx > 100) | COCCNC(=O)c1ccc2nn(CC3CCN(C(=O)c4ccc(-c5ccccc5F)cc4)CC3)cc2c1C [Example 47, 2-({1-[(2′-fluoro-biphenyl-4-yl)-carbonyl]piperidin-4-yl}methyl)-N-(2-methoxyethyl)-4-methyl-2H-indazol-5-carboxamide]
5.59 nM | xxx (xxx > 100) | xxx (xxx > 100) | COCCNC(=O)c1ccc2nn(CC3CCN(C(=O)c4ccc(-c5ccc(F)cc5F)cc4)CC3)cc2c1C [Example 48, 2-({1-[(2′,4′-difluoro-biphenyl-4-yl)-carbonyl]piperidin-4-yl}methyl)-N-(2-methoxyethyl)-4-methyl-2H-indazol-5-carboxamide]
6.44 nM | xxx (xxx > 100) | xxx (xxx > 100) | COCCNC(=O)c1ccc2nn(CC3CCN(C(=O)c4ccc(-c5ccccc5)c(F)c4)CC3)cc2c1C [Example 49, 2-({1-[(2-fluoro-biphenyl-4-yl)-carbonyl]piperidin-4-yl}methyl)-N-(2-methoxyethyl)-4-methyl-2H-indazol-5-carboxamide]
3.18 nM | xxx (xxx > 100) | xxx (xxx > 100) | COCCNC(=O)c1ccc2nn(CC3CCN(C(=O)c4ccc(-c5ccccc5C)cc4)CC3)cc2c1C [Example 50, N-(2-methoxyethyl)-4-methyl-2-({1-[(2′-methylbiphenyl-4-yl)carbonyl]piperidin-4-yl}methyl)-2H-indazol-5-carboxamide]
4.74 nM | xxx (xxx > 100) | xxx (xxx > 100) | COCCNC(=O)c1ccc2nn(CC3CCN(C(=O)c4ccc(Br)cc4)CC3)cc2c1C [Example 54, 2-{[1-(4-bromo-benzoyl)piperidin-4-yl]methyl}-N-(2-methoxyethyl)-4-methyl-2H-indazol-5-carboxamide]
